Like-named read-outs stand apart in the source and are kept apart here.
What was measured:
[1] = tested on: RPEMYC^H2B-GFP cells; experiment: Mechanism-informed phenotypic screening assay (mitotic arrest, polyploidy; GE IN-Cell Analyzer 2000); format: cell-based; settings: 20 nM to 20 μM, 24, 48 or 72 hours, read-out: Mitotic Arrest (≥5%)
[2] = tested on: RPEMYC^H2B-GFP cells; experiment: as above; format: cell-based; settings: 20 nM to 20 μM, 24, 48 or 72 hours; for minimal effective concentration: read-out: Min. Effective conc. for polyploidy (≥5%)
Protocol: We have Previously Developed a Mechanism-Informed Phenotypic Screening Assay to identify novel antimitotic agents (Li et al. 2019). Equipped with a prior understanding of the versatile functions of the chromosomal passenger protein (CPP) complex in orchestrating karyokinesis and cytokinesis, the screening assay is to score for phenotypes typically seen when the CPP complex is disabled. Specifically, the parameters for a positive hit are a temporary elevation of mitotic index (MI) at 24 hours of drug treatment and an accumulation of polyploid cells at 48 hours of drug treatment, indicative of mitotic arrest and cytokinetic failure respectively. These parameters exclude compounds that elicit only a prolonged arrest of cells in mitosis, a phenotype typically provoked by spindle toxins. The screening procedure is briefly summarized here. RPEMYC^H2B-GFP cells engineered to express a Histone 2B-EGFP fusion protein were passaged as batches of 96-well plates, 18-24 hours before exposure to the chemical compounds of the present disclosure at concentrations from 20 nM to 20 μM. At 24, 48 or 72 hours after initiation of treatment, cells were analyzed for either an arrest in mitosis or a change in DNA content by GE IN-Cell Analyzer 2000. As set forth in table 2 below, a value of greater than or equal to […] and less than or equal to 1.0 μM is marked e “A”; a value greater than […] and less than or equal to 10.0 μM is marked “B”; a value greater than 10.0 μM and less than or equal to 30.0 μM is marked “C”; and a value greater than 30.0 μM is marked “D.”

Compound	minimal effective concentration [1]	minimal effective concentration [2]	Min. Effective conc. for polyploidy (≥5%) [2]	Mitotic Arrest (≥5%) [2]
Cc1noc(-c2cc(Oc3ncccc3-c3ccnc(N)n3)cc(-c3nc(C)no3)c2)n1 [Compound 22, 4-(2-(3,5-bis(3-methyl-1,2,4-oxadiazol-5-yl)phenoxy)pyridin-3-yl)pyrimidin-2-amine]	> 30 µM	> 30 µM		
CCOc1cc(Oc2ncccc2-c2ccnc(C(F)(F)F)c2)cc(C(=O)NC)c1 [Compound 67, 3-ethoxy-N-methyl-5-((2′-(trifluoromethyl)-[3,4′-bipyridin]-2-yl)oxy)benzamide]	0.001 to 10 µM	0.001 to 10 µM		
COc1cc(Oc2ncccc2-c2ccnc(N)n2)cc(C(=O)O)c1 [Compound 24, 3-((3-(2-aminopyrimidin-4-yl)pyridin-2-yl)oxy)-5-methoxybenzoic acid]	> 30 µM	> 30 µM		
CNC(=O)c1cc(OC)cc(Oc2nccnc2-c2ccncc2)c1 [Compound 18, 3-methoxy-N-methyl-5-((3-(pyridin-4-yl)pyrazin-2-yl)oxy)benzamide]	1 µM	1 µM		
COc1cc(Oc2ncccc2-c2ccnc(C)c2)cc(C(=O)NC2CC2)c1 [Compound 98, N-cyclopropyl-3-methoxy-5-((2′-methyl-[3,4′-bipyridin]-2-yl)oxy)benzamide]	1 µM	1 µM		
COc1cc(OC)cc(Oc2ncccc2-c2cccnc2)c1 [Compound 47, 2-(3,5-dimethoxyphenoxy)-3,3′-bipyridine]	1 µM	1 µM		
COc1cc(OC)cc(Oc2nccnc2-c2cccnc2)c1 [Compound 50]	1 µM	1 µM		
CNC(=O)c1cc(OC)cc(Oc2ncccc2-c2ccnc(N)n2)c1 [Compound 25, 3-((3-(2-aminopyrimidin-4-yl)pyridin-2-yl)oxy)-5-methoxy-N-methylbenzamide]	1 µM	1 µM		
COc1cc(OC)cc(Oc2ncccc2-c2cc(OC)cc(OC)c2)c1 [Compound 58, 2-(3,5-dimethoxyphenoxy)-3-(3,5-dimethoxyphenyl)pyridine]	1 µM	1 µM		
CNC(=O)c1cc(OC)cc(Oc2ncccc2-c2ccnc(C(F)(F)F)c2)c1 [Compound 66, 3-methoxy-N-methyl-5-((2′-(trifluoromethyl)-[3,4′-bipyridin]-2-yl)oxy)benzamide]	1 µM	1 µM		
COc1cc(OC)cc(Oc2cncc(-c3ccccc3)n2)c1 [Compound 81, 2-(3,5-dimethoxyphenoxy)-6-phenylpyrazine]	0.001 to 10 µM	0.001 to 10 µM		
COc1cc(OC)cc(Oc2ncccc2-c2ccccc2)c1 [Compound 55, 2-(3,5-dimethoxyphenoxy)-3-phenylpyridine]	0.001 to 10 µM	0.001 to 10 µM		
COc1cc(Oc2ncccc2-c2ccncc2)cc(C(=O)N(C)C)c1 [Compound 5, 3-([3,4′-bipyridin]-2-yloxy)-5-methoxy-N,N-dimethylbenzamide]	0.001 to 10 µM	0.001 to 10 µM		
CNC(=O)c1cc(OC)cc(Oc2ncccc2-c2cc(C)nc(C)c2)c1 [Compound 99, 3-((2′,6′-dimethyl-[3,4′-bipyridin]-2-yl)oxy)-5-methoxy-N-methylbenzamide]	1 µM	1 µM		
COc1cc(OC)cc(Oc2nccnc2-c2ccccc2)c1 [Compound 57, 2-(3,5-dimethoxyphenoxy)-3-phenylpyrazine]	0.001 to 10 µM	0.001 to 10 µM		
CCOCCOc1cc(-c2cccnc2Oc2cc(OC)cc(-n3cccn3)c2)ccn1 [Compound 86, 2′-(2-ethoxyethoxy)-2-(3-methoxy-5-(1H-pyrazol-1-yl)phenoxy)-3,4′-bipyridine]	1 µM	1 µM		
CNC(=O)c1cc(OC)cc(Oc2ncccc2-c2cncnc2)c1 [Compound 91, 3-methoxy-N-methyl-5-((3-(pyrimidin-5-yl)pyridin-2-yl)oxy)benzamide]	1 µM	1 µM		
COc1cc(OC)cc(Oc2nccnc2-c2cc(OC)cc(OC)c2)c1 [Compound 59, 2-(3,5-dimethoxyphenoxy)-3-(3,5-dimethoxyphenyl)pyrazine]	0.001 to 10 µM	0.001 to 10 µM		

Compound	minimal effective concentration [1]	minimal effective concentration [2]	Min. Effective conc. for polyploidy (≥5%) [2]	Mitotic Arrest (≥5%) [2]
COc1cc(Oc2ncccc2-c2ccncc2)cc(C(=O)NC2CC2)c1 [Compound 100, 3-([3,4′-bipyridin]-2-yloxy)-N-cyclopropyl-5-methoxybenzamide]	1 µM	1 µM		
COc1cc(OC)cc(Oc2ncccc2-c2cc(OC)ncn2)c1 [Compound 60, 4-(2-(3,5-dimethoxyphenoxy)pyridin-3-yl)-6-methoxypyrimidine]	1 µM	1 µM		
COc1cc(Oc2ncccc2-c2ccncc2)cc(-c2nc(C)no2)c1 [Compound 11, 5-(3-([3,4′-bipyridin]-2-yloxy)-5-methoxyphenyl)-3-methyl-1,2,4-oxadiazole]	1 µM	1 µM		
CNC(=O)c1cc(Oc2ncccc2-c2ccnc(C)c2)cc(-n2cccn2)c1 [Compound 88, N-methyl-3-((2′-methyl-[3,4′-bipyridin]-2-yl)oxy)-5-(1H-pyrazol-1-yl)benzamide]	1 µM	1 µM		
CCOc1cc(Oc2ncccc2-c2ccncc2)cc(C(=O)NC)c1 [Compound 6, 3-([3,4′-bipyridin]-2-yloxy)-5-ethoxy-N-methylbenzamide]	1 µM	1 µM		
COc1cc(OC)cc(Oc2cncc(-c3cccc(F)c3)n2)c1 [Compound 83, 2-(3,5-dimethoxyphenoxy)-6-(3-fluorophenyl)pyrazine]	> 30 µM	> 30 µM		
COc1cc(OC)cc(Oc2ncccc2-c2ccnc(SC)n2)c1 [Compound 62, 4-(2-(3,5-dimethoxyphenoxy)pyridin-3-yl)-2-(methylthio)pyrimidine]	0.001 to 10 µM	0.001 to 10 µM		
COc1cc(Oc2ncccc2-c2ccncc2)cc(O[C@H]2CCOC2)c1 [Compound 94, (S)-2-(3-methoxy-5-((tetrahydrofuran-3-yl)oxy)phenoxy)-3,4′-bipyridine]	1 µM	1 µM		
COC(=O)c1cc(Oc2ncccc2-c2ccccc2)cc(C(=O)OC)c1 [Compound 56, dimethyl 5-((3-phenylpyridin-2-yl)oxy)isophthalate]	1 µM	1 µM		
COc1cc(OC)cc(Oc2ncccc2-c2ccnc(Cl)c2)c1 [Compound 44, 2′-chloro-2-(3,5-dimethoxyphenoxy)-3,4′-bipyridine]	1 µM	1 µM		
CNC(=O)c1cc(OC)cc(Oc2ncccc2-c2cc(C)ncn2)c1 [Compound 97, 3-methoxy-N-methyl-5-((3-(6-methylpyrimidin-4-yl)pyridin-2-yl)oxy)benzamide]	1 µM	1 µM		
COc1cc(OC)cc(Oc2ncccc2-c2ccncc2N)c1 [Compound 65, 2-(3,5-dimethoxyphenoxy)-[3,4′-bipyridin]-3′-amine]	0.001 to 10 µM	0.001 to 10 µM		
COc1cc(OC)cc(Oc2cncc(-c3cccnc3)n2)c1 [Compound 82, 2-(3,5-dimethoxyphenoxy)-6-(pyridin-3-yl)pyrazine]	0.001 to 10 µM	0.001 to 10 µM		
CNC(=O)c1cc(OC)cc(Oc2ncccc2-c2cccc(F)c2)c1 [Compound 92, 3-((3-(3-fluorophenyl)pyridin-2-yl)oxy)-5-methoxy-N-methylbenzamide]	1 µM	1 µM		
CNC(=O)c1cc(Oc2ncccc2-c2ccncc2)cc(OC2CCOC2)c1 (stereo not shown) [Compound 101, 3-([3,4′-bipyridin]-2-yloxy)-N-methyl-5-((tetrahydrofuran-3-yl)oxy)benzamide]	1 µM	1 µM		
CNC(=O)c1cc(Oc2ncccc2-c2ccncc2)cc(-c2cnn(C)c2)c1 [Compound 90, 3-([3,4′-bipyridin]-2-yloxy)-N-methyl-5-(1-methyl-1H-pyrazol-4-yl)benzamide]	1 µM	1 µM		
COc1cc(NC(C)=O)cc(Oc2ncccc2-c2ncccn2)c1 [Compound 93, N-(3-methoxy-5-((3-(pyrimidin-2-yl)pyridin-2-yl)oxy)phenyl)acetamide]			inactive	inactive

— patent US20240262803A1, “COMPOUNDS, COMPOSITIONS AND METHODS OF TREATING DISORDERS” (Chungdu Anticancer Bioscience Ltd, priority 2021, published 2024)
